Columns and labels:
[1] = Encapsulation efficiency of LNP preparations (Ribogreen assay; Qubit, unlysed and lysed LNPs); format: physicochemical; settings: LNP preparation with the ionizable lipid, ABE mRNA:sgRNA 1:1, except 7-1, 7-2, 7-6, 7-10 (unlysed and lysed LNPs, Qubit)
Method: (§1) Lipid nanoparticle components were dissolved in 100% ethanol at specified lipid component molar ratios. mRNA encoding an adenine base editor and a chemically-modified sgRNA was dissolved at a mass ratio of 1:1 in 50 mM citrate, pH 4.0, resulting in a concentration of NA cargo of approximately 0.1 mg/mL.
(§2) LNP preparations were formulated with molar ratios of 47.5% Ionizable Lipid: 40% Cholesterol: 2.5% PEG2000-DMG: 10% DSPC total lipid to NA molar ratio of 6 to 12.
(§3) LNP preparations were formed by microfluidic mixing of the lipid and NA solutions using Precision Nanosystems NanoAssemblr Ignite series Instruments, according to the manufacturer's protocol.
With the exception of LNPs comprising ionizable lipids 7-1, 7-2, 7-6, and 7-10, RNA concentration and encapsulation efficiency were determined by Ribogreen assay (BioTek Synergy LX plate reader). For LNPs comprising ionizable lipids 7-1, 7-2, 7-6, and 7-10, RNA concentration was determined by Qubit microRNA kit (for siRNA) or HS RNA kit (for mRNA) per manufacturer's instructions, and encapsulation efficiency was determined by measuring unlysed and lysed LNPs.

[2] = LNP hydrodynamic diameter and polydispersity index by dynamic light scattering (DLS); format: physicochemical; settings: for Diameter (nm): hydrodynamic diameter of the LNP preparation with the ionizable lipid; for PDI: polydispersity index of the LNP preparation with the ionizable lipid
Method: (§4) A 3:1 ratio of aqueous to organic solvent was maintained during mixing using differential flow rates. After mixing, LNP preparations were collected and diluted in TBS (approximately 7:1 v/v), and further buffer exchange was conducted using dialysis in TBS at 4° C. for 8 to 24 hours against a 20 kDa filter. After this initial dialysis, each individual LNP preparation was characterized via dynamic light scattering (DLS) to measure size and polydispersity. pKa of a subpopulation of LNP preparations was measured via TNS assay.
DLS-LNP preparation hydrodynamic diameter and polydispersity index (PDI) was measured using high throughput dynamic light scattering (DLS) (DynaPro plate reader II, Wyatt). LNP preparations were diluted 1×PBS to an appropriate concentration and analyzed.

[3] = tested on: ALAS1 target site; experiment: Base editing in liver by LNP-delivered ABE mRNA and sgRNA, targeted deep sequencing; format: in vivo; settings: LNP with the ionizable lipid, ABE mRNA + sgRNA targeting ALAS1 1:1; tail vein injection, Balb/c mice; 0.05 mg/kg; tissues four to six days post-dose
Method: as §1, §2, §3, §4
Male Balb/C mice aged approximately 8-12 weeks were used in the experiments described herein. […]
Age-matched mice were also used to administer vehicle (1×TBS) via tail vein injection as a control. Four to six days post-dose, tissues including liver, spleen, and bone marrow were collected. Base editing was determined by performing targeted deep sequencing analysis at the ALAS1 target site using extracted genomic DNA. Genomic DNA was isolated and fragmented and adapter-ligated using the Nextera DNA Flex Library Prep Kit (Illumina) using the 96-well plate Nextera indexing primers (Illumina), according to the manufacturer's instructions. Library size and concentration was confirmed by Fragment Analyzer (Agilent) and analyzed for whole genome sequencing using an Illumina HiSeq.

| SMILES | Encapsulation Efficiency (%) [1] [%] | Diameter (nm) [2] [nm] | PDI [2] | % Editing in Liver (0.05 mpk) [3] [%] |
| --- | --- | --- | --- | --- |
| CC/C=C\CCCCOC(CCC(=O)OCC(COC(=O)CCCCCCOC(=O)C(CCCC)CCCCCC)COC(=O)CCC(CCCCCC)OC(=O)CCCN1CCCC1)OCCCC/C=C\CC (centres unmarked) [Compound 7-49, 3-((4,4-bis(((Z)-oct-5-en-1-yl)oxy)butanoyl)oxy)-2-(((7-((2-butyloctanoyl)oxy)heptanoyl)oxy)methyl)propyl 4-((4-(pyrrolidin-1-yl)butanoyl)oxy)decanoate] | 96.3 | 57 | 0.06 | 6.6 |
| C=CCCCCCC(CCCCCC=C)OC(=O)CCCCCC(=O)OCC(COC(=O)CCC(CCCCCC)OC(=O)NCCN1CCCC1)COC(=O)CCC(OCCCC/C=C\CC)OCCCC/C=C\CC (centres unmarked) [Compound 7-34, 1-(3-((4,4-bis(((Z)-oct-5-en-1-yl)oxy)butanoyl)oxy)-2-(((4-(((2-(pyrrolidin-1-yl)ethyl)carbamoyl)oxy)decanoyl)oxy)methyl)propyl) 7-(pentadeca-1,14-dien-8-yl) heptanedioate] | 98.1 | 54.35 | 0.05 | 1.6 |
| CC/C=C\CCCCOC(CCC(=O)OCC(COC(=O)CCCCCC(=O)OCCC(CCCCC)CCCCC)COC(=O)CCC(CC)OC(=O)NCCN1CCCC1)OCCCC/C=C\CC (centres unmarked) [Compound 7-24, 1-(3-((4,4-bis(((Z)-oct-5-en-1-yl)oxy)butanoyl)oxy)-2-(((4-(((2-(pyrrolidin-1-yl)ethyl)carbamoyl)oxy)hexanoyl)oxy)methyl)propyl) 7-(3-pentyloctyl) heptanedioate] | 85.9 | 84.01 | 0.09 | – |
| CC/C=C\CCCCOC(CCC(=O)OCC(COC(=O)CCCCCCC/C=C\C/C=C\CCCCC)COC(=O)CCC(CCCCCC)OC(=O)OCCCN(CC)CC)OCCCC/C=C\CC (centres unmarked) [Compound 7-10, 16-(((4,4-bis(((Z)-oct-5-en-1-yl)oxy)butanoyl)oxy)methyl)-3-ethyl-10-hexyl-8,13-dioxo-7,9,14-trioxa-3-azaheptadecan-17-yl (9Z,12Z)-octadeca-9,12-dienoate] | 88.2 | 76.95 | 0.09 | – |
| CC/C=C\CCCCOC(CCC(=O)OCC(COC(=O)CCCCCCCOC(=O)C(CCCC)CCCCCC)COC(=O)CCC(CCCCCC)OC(=O)NCCN1CCCC1)OCCCC/C=C\CC (centres unmarked) [Compound 7-6, 3-((4,4-bis(((Z)-oct-5-en-1-yl)oxy)butanoyl)oxy)-2-(((8-((2-butyloctanoyl)oxy)octanoyl)oxy)methyl)propyl 4-(((2-(pyrrolidin-1-yl)ethyl)carbamoyl)oxy)decanoate] | 91.3 | 85.01 | 0.08 | – |
| CCCCC/C=C\C/C=C\CCCCCCCC(=O)OCC(COC(=O)CCC(CCCCCC)OC(=O)NCCN1CCCC1)COC(=O)CCC(OCCCCCCCC)OCCCCCCCC (centres unmarked) [Compound 7-1, 3-((4,4-bis(octyloxy)butanoyl)oxy)-2-(((4-(((2-(pyrrolidin-1-yl)ethyl)carbamoyl)oxy)decanoyl)oxy)methyl)propyl (9Z,12Z)-octadeca-9,12-dienoate] | 97.5 | 64.70 | 0.14 | – |
| CC/C=C\CCCCOC(CCC(=O)OCC(COC(=O)CCCCCCC/C=C\C/C=C\CCCCC)COC(=O)OCC(CCCCCC)OC(=O)NCCN1CCCC1)OCCCC/C=C\CC (centres unmarked) [Compound 7-5, 12-(((4,4-bis(((Z)-oct-5-en-1-yl)oxy)butanoyl)oxy)methyl)-6-hexyl-4,9-dioxo-1-(pyrrolidin-1-yl)-5,8,10-trioxa-3-azatridecan-13-yl (9Z,12Z)-octadeca-9,12-dienoate] | 87.2 | 78.39 | 0.09 | – |
| CC/C=C\CCCCOC(CCC(=O)OCC(COC(=O)CCCCCCOC(=O)C(CCCC)CCCCCC)COC(=O)CCC(CCCCCC)OC(=O)NCCN1CCCC1)OCCCC/C=C\CC (centres unmarked) [Compound 7-7, 3-((4,4-bis(((Z)-oct-5-en-1-yl)oxy)butanoyl)oxy)-2-(((7-((2-butyloctanoyl)oxy)heptanoyl)oxy)methyl)propyl 4-(((2-(pyrrolidin-1-yl)ethyl)carbamoyl)oxy)decanoate] | 95.0 | 66.85 | 0.06 | – |
| CC/C=C\CCCCOC(CCC(=O)OCC(COC(=O)CCCCCCC/C=C\C/C=C\CCCCC)COC(=O)CCC(CCCCCC)OC(=O)OCCCN(C)C)OCCCC/C=C\CC (centres unmarked) [Compound 7-3, 15-(((4,4-bis(((Z)-oct-5-en-1-yl)oxy)butanoyl)oxy)methyl)-9-hexyl-2-methyl-7,12-dioxo-6,8,13-trioxa-2-azahexadecan-16-yl (9Z,12Z)-octadeca-9,12-dienoate] | 19.8 | 85.72 | 0.72 | – |
| CC/C=C\CCCCOC(CCC(=O)OCC(COC(=O)CCCCCCOC(=O)C(CCCC)CCCCCC)COC(=O)CCC(CCC)OC(=O)NCCN1CCCC1)OCCCC/C=C\CC (centres unmarked) [Compound 7-21, 12-(((4,4-bis(((Z)-oct-5-en-1-yl)oxy)butanoyl)oxy)methyl)-4,9,15-trioxo-6-propyl-1-(pyrrolidin-1-yl)-5,10,14-trioxa-3-azahenicosan-21-yl 2-butyloctanoate] | 99.2 | 83.43 | 0.03 | – |
| CC/C=C\CCCCOC(CCC(=O)OCC(COC(=O)CCCCCCOC(=O)C(CCCC)CCCCCC)COC(=O)CCC(CC)OC(=O)NCCN1CCCC1)OCCCC/C=C\CC (centres unmarked) [Compound 7-20, 12-(((4,4-bis(((Z)-oct-5-en-1-yl)oxy)butanoyl)oxy)methyl)-6-ethyl-4,9,15-trioxo-1-(pyrrolidin-1-yl)-5,10,14-trioxa-3-azahenicosan-21-yl 2-butyloctanoate] | 99.4 | 84.26 | 0.06 | – |
| CC/C=C\CCCCOC(CCC(=O)OCC(COC(=O)CCCCCCOC(=O)C(CCCC)CCCCCC)COC(=O)CCC(CCCCCC)OC(=O)NCCN(C)CC)OCCCC/C=C\CC (centres unmarked) [Compound 7-43, 3-((4,4-bis(((Z)-oct-5-en-1-yl)oxy)butanoyl)oxy)-2-(((7-((2-butyloctanoyl)oxy)heptanoyl)oxy)methyl)propyl 4-(((2-(ethyl(methyl)amino)ethyl)carbamoyl)oxy)decanoate] | 89.2 | 114.2 | 0.11 | – |
| CC/C=C\CCCCOC(CCC(=O)OCC(COC(=O)CCCCCC(=O)OCCC(CCCCC)CCCCC)COC(=O)CCC(CCCC)OC(=O)NCCN1CCCC1)OCCCC/C=C\CC (centres unmarked) [Compound 7-26, 1-(3-((4,4-bis(((Z)-oct-5-en-1-yl)oxy)butanoyl)oxy)-2-(((4-(((2-(pyrrolidin-1-yl)ethyl)carbamoyl)oxy)octanoyl)oxy)methyl)propyl) 7-(3-pentyloctyl) heptanedioate] | 98.5 | 60.05 | 0.11 | – |
| CC/C=C\CCCCOC(CCC(=O)OCC(COC(=O)CCCCCCOC(=O)C(CCCC)CCCCCC)COC(=O)CCC(C)OC(=O)NCCN1CCCC1)OCCCC/C=C\CC (centres unmarked) [Compound 7-28, 12-(((4,4-bis(((Z)-oct-5-en-1-yl)oxy)butanoyl)oxy)methyl)-6-methyl-4,9,15-trioxo-1-(pyrrolidin-1-yl)-5,10,14-trioxa-3-azahenicosan-21-yl 2-butyloctanoate] | 99.2 | 74.80 | 0.09 | – |
| CC/C=C\CCCCOC(CCC(=O)OCC(COC(=O)CCCCCCC/C=C\C/C=C\CCCCC)COC(=O)CCC(CCCCCC)OC(=O)NCCN1CCCC1)OCCCC/C=C\CC (centres unmarked) [Compound 7-2, 3-((4,4-bis(((Z)-oct-5-en-1-yl)oxy)butanoyl)oxy)-2-(((4-(((2-(pyrrolidin-1-yl)ethyl)carbamoyl)oxy)decanoyl)oxy)methyl)propyl (9Z,12Z)-octadeca-9,12-dienoate] | 97.8 | 43.80 | 0.04 | – |
